Experimental data reported in PMC3968128, “Broadly Reactive Human CD8 T Cells that Recognize an Epitope Conserved between VZV, HSV and EBV” (PLoS Pathogens, 2014).
Ends that are not written are not given here.

Tests used:
[1] = target: T1, HLA A*02:01 class I molecules (Homo sapiens, UniProt P04439, D140Y/D185E/D98H/E176V/E277Q/G131W/G231S/I119V/I121R/I166T/I218V/L300P/L318F/N151K/N90K/P208A/P217A/Q86G/Q94H/R138H/R169H/T345S); experiment: MHC-peptide binding assay, inhibition of binding of radiolabeled standard peptide; details: inhibition of binding of radiolabeled HBV core 18–27 analogue […]; purified MHC from JY cells; six concentrations, three or more independent assays; read-out: Measured affinity IC50
T1 construct: endogenous in cells; host or cells: JY (EBV-transformed homozygous B cell line)
Source text: Quantitative assays to measure the binding of peptides to HLA A*02:01 class I molecules are based on the inhibition of binding of a radiolabeled standard peptide (HBV core 18–27 analogue, […]). MHC molecules were purified by affinity chromatography from the EBV transformed homozygous cell line JY, and assays performed, as described previously. […] Under the conditions used, where [radiolabeled probe] < [MHC] and IC50 ≥ [MHC], the measured IC50 values are reasonable approximations of the true Kd values.

[2] = system: PBMCs from HLA-A*0201+ volunteers; experiment: Ex vivo IFN-γ ELISpot assay; type: cell-based, human; details: individual peptides at 10 µg/ml; 20 h, 37°C
Source text: We recruited 21 HLA-A*0201 positive volunteers with a history of primary VZV infection, detectable VZV IgG but no previous VZV vaccination or clinical evidence of recent reactivation (Table 1). The median age was 63 years (range 25–77 years). Epitope predictions in the context of HLA-A*0201 were made using the Immune Epitope Database consensus prediction tool with the complete published VZV sequences (Table S1). The top 0.5% of 9- and 10-mers (367 peptides) were synthesized and peptide pools screened by IFN-γ ELISpot using PBMCs from each subject. In 15/21 subjects, the same peptide pool induced positive responses (Figure 1a). […] Tetramer+ cells were detected in 12/21 subjects with frequencies ranging from 0.01% to 1.8% of CD8 T cells (Figure 1d). ILI was thus identified as an immunodominant HLA-A*0201-restricted class I epitope.
Gamma interferon (IFN-γ) enzyme-linked immunospot (ELISpot) assays were performed using 2×10^5 PBMC stimulated with peptide pools (10 µg/ml/peptide). Peptide pools yielding positive responses were deconvoluted, by testing individual peptides at 10 µg/ml. After 20 h of incubation at 37°C, plates were developed, and responses were calculated. Positive wells contained ≥20 spot-forming units (SFU)/10^6 cells and a P value of ≤0.05 using a Student's t test in at least 2 experiments.

Sequence ILIEGIFFA has an IC50 [1] of 0.15 nM.
ILIEGIFFV showed an IC50 [1] of 0.03 nM.
ILIEGVFFA was tested, and the IC50 [1] was 0.16 nM.
Sequence LLIEGIFFI has an IC50 [1] of 0.12 nM.
With “MILIEGIFFV [10-mer candidate peptide from ribonucleotide reductase subunit 2 (RNR2) of VZV]” the “IFN-γ production (individual peptides)” value [2] was “strongly induced IFN-γ production”.
